# Assay results taken from patent publication US9028870B2, “Hydrogel-driven drug dosage form” (Bend Research, Inc., priority 1999, dated 2015).
# Legend:
# [1] = aqueous solubility as stated for drugs and organic acids
# [2] = physchem
compound,measurement,setting,value
"4-[3-[4-(2-methylimidazol-1-yl)phenylthio]phenyl]-3,4,5,6-tetrahydro-2H-pyran-4-carboxamide hemifumarate [Drug 3]",solubility,[1]; pH 4,3.7 mgA/mL
"CCCc1nn(C)c2c(=O)[nH]c(-c3cc(S(=O)(=O)N4CCN(C)CC4)ccc3OCC)nc12 [Drug 1, 1-[4-ethoxy-3-(6,7-dihydro-1-methyl-7-oxo-3-propyl-1H-pyrazolo[4,3-d]pyrimidin-5-yl)phenylsulphony]-4-methylpiperazine]",solubility,"[1]; pH 6, aqueous buffer",~20 µg/mL
"O=C(N[C@@H](Cc1ccccc1)[C@@H](O)C(=O)N1C[C@@H](O)[C@@H](O)C1)c1cc2cc(Cl)ccc2[nH]1 [Drug 4, 5-chloro-1H-indole-2-carboxylic acid [(1S)-benzyl-3-((3R,4S)-dihydroxypyrrolidin-1-yl-)-(2R)-hydroxy-3-oxypropyl]amide]",water solubility,[1]; water,80 µg/mL
O=C1Cc2cc(CCN3CCN(c4nsc5ccccc45)CC3)c(Cl)cc2N1 [Drug 5],solubility,[1]; model fasted duodenal solution,3 µg/mL
"CC(C(=O)O)c1ccc2c(c1)[nH]c1ccc(Cl)cc12 (stereo not shown) [Drug 6, carprofen]",solubility,"[1]; pH 5.9, aqueous buffer",~15 µg/mL
"NC(=O)N1C(=O)/C(=C(\O)c2cccs2)c2cc(Cl)ccc21 [Drug 7, Tenidap]",solubility,"[2]; pH 3.7, aqueous buffer",2 µg/mL
same,solubility,"[2]; pH 7.4, aqueous buffer",200 µg/mL
